# pKd: −log10 of the molar value. Like-named read-outs stand apart in the source and are kept apart here. Where a SMILES comes first, the peptide text is derived from it. Bridges are numbered along the chain shown (N, C = ends). [ ]: non-standard residue; d: D form. The star is where a group is joined. hPhe(3,5-F2-4-CF3) = N[C@@H](CCc1cc(F)c(C(F)(F)F)c(F)c1)C(=O)O; hPhe(3-Cl-4-CF3) = N[C@@H](CCc1ccc(C(F)(F)F)c(Cl)c1)C(=O)O; NPrPhe(4-CF3) = CCCN[C@@H](Cc1ccc(C(F)(F)F)cc1)C(=O)O; NMeGly(cPent) = CN[C@H](C(=O)O)C1CCCC1; αMeCha = C[C@](N)(CC1CCCCC1)C(=O)O; Hyp = O=C(O)[C@@H]1C[C@@H](O)CN1; NMeD = CN[C@@H](CC(=O)O)C(=O)O; NMeL = CN[C@@H](CC(C)C)C(=O)O; Morpholide = C1CN(*)CCO1; NAllylGly = C=CCNCC(=O)O; Ac5c = NC1(C(=O)O)CCCC1; Aze = O=C(O)[C@@H]1CCN1; Sar = CNCC(=O)O
# Assays:
# [1] = molecular target: GDP-bound KRAS wild-type protein (Homo sapiens, UniProt P01116); test: Binding to KRAS by surface plasmon resonance (SPR), Single Cycle Kinetics; settings: GDP-bound KRAS wild-type protein, read-out: KRAS KD
# [2] = molecular target: GDP-bound NRAS wild-type protein (Homo sapiens, UniProt P01111); test: Binding to NRAS by surface plasmon resonance (SPR), Single Cycle Kinetics; settings: for NRAS/KRAS (ratio of KD value for NRAS to KD value for KRAS) / NRAS/KRAS (ratio of KD value with respect to NRAS to KD value with respect to KRAS): SPR, GDP-bound NRAS wild-type protein vs GDP-bound KRAS wild-type protein
# [3] = molecular target: GDP-bound HRAS wild-type protein (Homo sapiens, UniProt P01112); test: Binding to HRAS by surface plasmon resonance (SPR), Single Cycle Kinetics; settings: for HRAS/KRAS (ratio of KD value for HRAS to KD value for KRAS) / HRAS/KRAS (ratio of KD value with respect to HRAS to KD value with respect to KRAS): SPR, GDP-bound HRAS wild-type protein vs GDP-bound KRAS wild-type protein
# [4] = SPR Single Cycle Kinetics, 1:1 binding model
# [5] = SPR, Single Cycle Kinetics, 1:1 binding model
# GDP-bound HRAS wild-type protein, sequence (P01112 whole entry): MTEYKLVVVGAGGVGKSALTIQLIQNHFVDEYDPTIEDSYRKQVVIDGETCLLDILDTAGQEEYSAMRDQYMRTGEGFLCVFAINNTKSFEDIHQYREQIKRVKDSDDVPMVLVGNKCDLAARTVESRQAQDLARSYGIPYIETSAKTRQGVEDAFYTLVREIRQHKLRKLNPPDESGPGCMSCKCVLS
# GDP-bound KRAS wild-type protein, sequence (P01116 whole entry): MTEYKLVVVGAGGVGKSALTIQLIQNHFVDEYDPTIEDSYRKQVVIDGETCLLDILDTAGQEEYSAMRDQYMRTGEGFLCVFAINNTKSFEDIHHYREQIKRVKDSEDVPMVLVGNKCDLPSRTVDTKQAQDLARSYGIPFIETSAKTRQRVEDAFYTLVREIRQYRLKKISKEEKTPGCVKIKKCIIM
# GDP-bound NRAS wild-type protein, sequence (P01111 whole entry): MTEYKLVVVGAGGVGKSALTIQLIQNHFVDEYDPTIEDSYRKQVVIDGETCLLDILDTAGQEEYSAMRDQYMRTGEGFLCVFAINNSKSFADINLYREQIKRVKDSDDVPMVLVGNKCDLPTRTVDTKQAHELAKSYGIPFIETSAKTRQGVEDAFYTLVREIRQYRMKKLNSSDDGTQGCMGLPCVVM
SMILES,"pKd ([1]; SPR, Single Cycle Kinetics)","pKd [1, 4]",NRAS/KRAS (ratio of KD value for NRAS to KD value for KRAS) [2],HRAS/KRAS (ratio of KD value for HRAS to KD value for KRAS) [3],NRAS/KRAS (ratio of KD value with respect to NRAS to KD value with respect to KRAS) [2],HRAS/KRAS (ratio of KD value with respect to HRAS to KD value with respect to KRAS) [3],also measured
CCO[C@@H]1C[C@H]2C(=O)NC3(CCC3)C(=O)N(C)[C@@H](C(CC)CC)C(=O)N(C)[C@H](C(=O)N3CCCCC3)CC(=O)N(C)[C@H]3CCCC/C=C/c4ccc(cc4)C[C@@H](C(=O)N(C)CC(=O)N[C@@H](CCc4ccc(Cl)c(Cl)c4)C(=O)N2C1)N1CC/C=C\C[C@@H](C1=O)N(C)C(=O)CN(C)C(=O)[C@H]([C@@H](C)CC)NC3=O [PP3046],9.41,–,AA (a compound having 20 or more is denoted as AA),A (a compound having 10 or more and less than 20 is denoted as A),–,–,–
"CCCN1C(=O)[C@@H]2CCN2C(=O)CN(C)C(=O)[C@H]([C@@H](C)CC)NC(=O)[C@H](CC(C)C)N(C)C(=O)C[C@@H](C(=O)N2CCOCC2)N(C)C(=O)[C@H](C2CCCC2)N(C)C(=O)[C@](C)(CC2CCCCC2)NC(=O)[C@@H]2CCCN2C(=O)[C@H](CCc2cc(F)c(C(F)(F)F)c(F)c2)NC(=O)CN(C)C(=O)[C@@H]1Cc1ccc(C(F)(F)F)cc1 [PP0796] ([NMeL]I[Sar][Aze][NPrPhe(4-CF3)][Sar][hPhe(3,5-F2-4-CF3)]P[αMeCha][NMeGly(cPent)][NMeD]-Morpholide; lactam N-11)",–,8.12,–,–,C (A compound having a KD ratio of 0.1 or more and less than 3 is denoted as C),B (a compound having 3 or more and less than 10 is denoted as B),–
CCO[C@@H]1C[C@H]2C(=O)NC3(CC(C)(C)C3)C(=O)N(C)[C@@H](C3CCCC3)C(=O)N(C)[C@H](C(=O)N(C)CC)CC(=O)N(C)[C@@H](CC(C)C)C(=O)N[C@@H]([C@@H](C)CC)C(=O)N(C)CC(=O)N(C)[C@H]3C/C=C\CCN(C3=O)[C@@H](Cc3ccc(C(F)F)cc3)C(=O)N(C)CC(=O)N[C@@H](CCc3ccc(C(F)(F)F)c(OC)c3)C(=O)N2C1 [PP2828],–,9.96,–,–,–,–,"NRAS/KRAS (ratio of KD value with respect to GDP-bound NRAS wild-type protein to KD value with respect to KRAS) ([2]; SPR KD ratio NRAS/KRAS, class symbols): A (a compound having 10 or more and less than 20 is denoted as A); HRAS/KRAS (ratio of KD value with respect to GDP-bound HRAS wild-type protein to KD value with respect to KRAS) ([3]; SPR KD ratio HRAS/KRAS, class symbols): A (a compound having 10 or more and less than 20 is denoted as A)"
CCO[C@@H]1C[C@H]2C(=O)NC3(CCC3)C(=O)N(C)[C@@H](C3CCCC3)C(=O)N(C)[C@H](C(=O)N(C)C)CC(=O)N(C)[C@@H](CCOC)C(=O)N[C@@H]([C@@H](C)CC)C(=O)N(C)CC(=O)N(C)[C@H]3CCCCN(C3=O)[C@@H](Cc3ccc(C(F)(F)F)cc3)C(=O)N(C)CC(=O)N[C@@H](CCc3cc(F)c(C(F)(F)F)c(F)c3)C(=O)N2C1 [PP0705],–,10.57,–,–,C (A compound having a KD ratio of 0.1 or more and less than 3 is denoted as C),C (A compound having a KD ratio of 0.1 or more and less than 3 is denoted as C),–
"CCO[C@@H]1C[C@H]2C(=O)NC3(CCC3)C(=O)N(C)[C@@H](C3CCCC3)C(=O)N(C)[C@H](C(=O)N(C)C)CC(=O)N(C)[C@@H](Cc3cccs3)C(=O)N[C@@H]([C@@H](C)CC)C(=O)N(C)CC(=O)N(C)[C@H]3C/C=C\CCN(C3=O)[C@@H](Cc3ccc(C(F)(F)F)cc3)C(=O)N(C)CC(=O)N[C@@H](CCc3cc(F)c(C(F)(F)F)c(F)c3)C(=O)N2C1 [PP1123, (2S,8S,12R,14S,20S,23S,27S,30S,36S,38Z)-20-cyclopentyl-8-[2-[3,5-difluoro-4-(trifluoromethyl)phenyl]ethyl]-12-ethoxy-N,N,4,19,22,26,32,35-octamethyl-30-[(1S)-1-methylpropyl]-3,6,9,15,18,21,25,28,31,34,42-undecaoxo-27-(2-thienylmethyl)-2-[[4-(trifluoromethyl)phenyl]methyl]spiro[1,4,7,10,16,19,22,26,29,32,35-undecazatricyclo[34.5.1.0^10,14]dotetracont-38-ene-17,1′-cyclobutane]-23-carboxamide]",10.14,–,A (a compound having 10 or more and less than 20 is denoted as A),B (a compound having 3 or more and less than 10 is denoted as B),–,–,–
CC[C@H](C)[C@@H]1NC(=O)[C@H](CC2CC2)N(C)C(=O)C[C@@H](C(=O)N(C)C)N(C)C(=O)[C@H](C2CCCC2)N(C)C(=O)C2(CCC2)NC(=O)[C@@H]2C[C@@H](C(F)(F)F)CN2C(=O)[C@H](CCc2cc(F)c(C(F)(F)F)c(F)c2)NC(=O)CN(C)C(=O)[C@H](Cc2ccc(C(F)(F)F)cc2)N2CC/C=C\C[C@@H](C2=O)N(C)C(=O)CN(C)C1=O [PP1498],–,–,–,–,–,–,"pKd [1, 5]: 10.16; NRAS/KRAS (ratio of KD value for NRAS to KD value for KRAS) ([2]; KD ratio class): A (a compound having 10 or more and less than 20 is denoted as A); HRAS/KRAS (ratio of KD value for HRAS to KD value for KRAS) ([3]; KD ratio class): A (a compound having 10 or more and less than 20 is denoted as A)"
CC[C@H](C)[C@@H]1NC(=O)[C@H](CC)N(C)C(=O)C[C@@H](C(=O)N(C)C)N(C)C(=O)[C@H](C2CCCC2)N(C)C(=O)C2(CCCC2)NC(=O)[C@@H]2CCCN2C(=O)[C@H](CCc2cc(F)c(C(F)(F)F)c(F)c2)NC(=O)CN(C)C(=O)[C@H](Cc2ccc(C(F)(F)F)cc2)N2CC(C)[C@@H](C)C[C@@H](C2=O)N(C)C(=O)CN(C)C1=O (stereo partly drawn) [PP1349],–,–,–,–,–,–,"pKd [1, 5]: 10.05; NRAS/KRAS (ratio of KD value for NRAS to KD value for KRAS) ([2]; KD ratio class): C (A compound having a KD ratio of 0.1 or more and less than 3 is denoted as C); HRAS/KRAS (ratio of KD value for HRAS to KD value for KRAS) ([3]; KD ratio class): B (a compound having 3 or more and less than 10 is denoted as B)"
CCCN1C(=O)[C@@H]2CCN2C(=O)CN(C)C(=O)[C@H]([C@@H](C)CC)NC(=O)[C@H](CC(C)C)N(C)C(=O)C[C@@H](C(=O)N2CCOCC2)N(C)C(=O)[C@H](C2CCCC2)N(C)C(=O)C2(CCCC2)NC(=O)[C@@H]2C[C@@H](OCC)CN2C(=O)[C@H](CCc2ccc(C(F)(F)F)c(Cl)c2)NC(=O)CN(C)C(=O)[C@@H]1Cc1ccc(C(F)(F)F)cc1 [PP0410] ([NMeL]I[Sar][Aze][NPrPhe(4-CF3)][Sar][hPhe(3-Cl-4-CF3)][Hyp](Et)[Ac5c][NMeGly(cPent)][NMeD]-Morpholide; lactam N-11),–,10.24,–,–,C (A compound having a KD ratio of 0.1 or more and less than 3 is denoted as C),B (a compound having 3 or more and less than 10 is denoted as B),–
CC[C@H](C)[C@@H]1NC(=O)[C@H](CC(C)C)N(C)C(=O)C[C@@H](C(=O)N2CCOCC2)N(C)C(=O)[C@H](C2CCCC2)N(C)C(=O)C2(CCCC2)NC(=O)[C@@H]2CC(=O)CN2C(=O)[C@H](CCc2cc(F)c(C(F)(F)F)c(F)c2)NC(=O)CN(C)C(=O)[C@H](Cc2ccc(C(F)(F)F)cc2)N2CCCCC[C@@H](C2=O)N(C)C(=O)CN(C)C1=O [PP0493],–,8.70,–,–,B (a compound having 3 or more and less than 10 is denoted as B),B (a compound having 3 or more and less than 10 is denoted as B),–

# Second part, led by results:
"pKd ([1]; SPR, Single Cycle Kinetics)","pKd [1, 4]",SMILES,NRAS/KRAS (ratio of KD value for NRAS to KD value for KRAS) [2],HRAS/KRAS (ratio of KD value for HRAS to KD value for KRAS) [3],NRAS/KRAS (ratio of KD value with respect to NRAS to KD value with respect to KRAS) [2],HRAS/KRAS (ratio of KD value with respect to HRAS to KD value with respect to KRAS) [3],also measured
9.49,–,CCC[C@H]1C(=O)N[C@@H]([C@@H](C)CC)C(=O)N(C2CC2)CC(=O)N(C)[C@H]2C/C=C\CCN(C2=O)[C@@H](Cc2ccc(C(F)(F)F)cc2)C(=O)N(C)CC(=O)N[C@@H](CCc2cc(F)c(C(F)(F)F)c(F)c2)C(=O)N2C[C@H](OCC)C[C@H]2C(=O)NC2(CC(C)(C)C2)C(=O)N(C)[C@@H](C2CCCC2)C(=O)N(C)[C@H](C(=O)N(C)C)CC(=O)N1C [PP2101],A (a compound having 10 or more and less than 20 is denoted as A),B (a compound having 3 or more and less than 10 is denoted as B),–,–,–
–,9.23,C=CCN1CC(=O)N(C)CC(=O)N(CCC)[C@@H](Cc2ccc(C(F)(F)F)cc2)C(=O)N(C)CC(=O)N[C@@H](CCc2ccc(C(F)(F)F)c(Cl)c2)C(=O)N2CCC[C@H]2C(=O)NC2(CCCC2)C(=O)N(C)[C@@H](C2CCCC2)C(=O)N(C)[C@H](C(=O)N2CCOCC2)CC(=O)N(C)[C@@H](CC(C)C)C(=O)N[C@@H]([C@@H](C)CC)C1=O [PP0749] ([NMeL]I[NAllylGly][Sar][NPrPhe(4-CF3)][Sar][hPhe(3-Cl-4-CF3)]P[Ac5c][NMeGly(cPent)][NMeD]-Morpholide; lactam N-11),–,–,B (a compound having 3 or more and less than 10 is denoted as B),C (A compound having a KD ratio of 0.1 or more and less than 3 is denoted as C),–
–,9.20,CCO[C@@H]1C[C@H]2C(=O)NC3(CCC3)C(=O)N(C)[C@@H](C3CCCC3)C(=O)N(C)[C@H](C(=O)N3CCOCC3)CC(=O)N(C)[C@@H](C)C(=O)N[C@@H]([C@@H](C)CC)C(=O)N(C)CC(=O)N(C)[C@H]3CCCCCN(C3=O)[C@@H](Cc3ccc(C(F)(F)F)cc3)C(=O)N(C)CC(=O)N[C@@H](CCc3cc(F)c(C(F)(F)F)c(F)c3)C(=O)N2C1 [PP0474],–,–,B (a compound having 3 or more and less than 10 is denoted as B),B (a compound having 3 or more and less than 10 is denoted as B),–
9.62,–,CCC[C@H]1C(=O)N[C@@H]([C@@H](C)CC)C(=O)N(C)CC(=O)N(C)[C@H]2C/C=C\CCN(C2=O)[C@@H](Cc2ccc(C(F)(F)F)cc2)C(=O)N(C)CC(=O)N[C@@H](CCc2ccc(C(F)(F)F)c(Cl)c2)C(=O)N2C[C@@H](C)C[C@H]2C(=O)NC2(CC(C)(C)C2)C(=O)N(C)[C@@H](C2CCCC2)C(=O)N(C)[C@H](C(=O)N(C)C)CC(=O)N1C [PP2270],B (a compound having 3 or more and less than 10 is denoted as B),B (a compound having 3 or more and less than 10 is denoted as B),–,–,–

# Source: patent US20240158446A1, “CYCLIC COMPOUND HAVING SELECTIVE INHIBITORY ACTION ON KRAS OVER HRAS AND NRAS” (CHUGAI SEIYAKU KABUSHIKI KAISHA, priority 2021, published 2024)
